Test results as given in US9771316B2, “Phenoxyalkylamine compound” (OSAKA UNIVERSITY, priority 2013, dated 2017).
Counter-ions that a name gives are not always drawn.

Experiments:
human LAT-2 = human LAT-2 (Homo sapiens (Human), UniProt Q9UHI5); test: Inhibition of [14C] amino acid uptake into human LAT-2 stably expressing HEK293 cell line (uptake buffer, 1 min); assay type: cell-based; conditions: HEK293 human LAT-2 stably expressing cells; Na+-free HBSS pH7.4; [14C]L-leucine or alanine 1 μM, uptake 1 min; read-out: LAT-2 inhibitory activity/IC50
Description: (§1) 1) LAT-1 Inhibitory Activity and LAT-2 Inhibitory Activity Inhibitory Effect on Uptake of Amino Acid into Human LAT-1 Stably Expressing Cell Line and LAT-2 Stably Expressing Cell Line
(§2) Expression vector each expressing a gene was inserted using Lipofectamine 2000 (Invitrogen) to cultured cell line HEK293 cell derived from human fetus renal cell. The resistant strains were selected using G418, and among them, the strains showing human LAT-1- or LAT-2-specific uptake of amino acid were established as stably expressing cell lines, respectively.
(§3) The above-mentioned stably expressing cells were plated on a 24-well collagen plate at 1.2×10^5 cells/well, and, after 48 hr, the cells were washed (×3) with uptake buffer ([…] Hank's balanced salt solution (HBSS) pH7.4) kept at 37° C. Each test compound (0.1, 1, 3, 10, 30, 100, 300 and 1000 μM) was added thereto, and the mixture was kept at 37° C. for 3 min. [^14C]L-leucine or alanine (1 μM) was added thereto, and [^14C]L-leucine or alanine (1 μM) was uptaken for 1 min. The mixture was washed with ice-cold uptake buffer (×3). Then, the cells were dissolved in 0.1M NaOH aqueous solution (500 μL), and the protein concentration was measured using the 20 μL of the solution. The uptaken radioactivity was measured using the remaining solution. The measured results were corrected with the protein concentration. The results were evaluated as inhibitory capacity 50%, i.e., IC50, which corresponds to the concentration inhibiting 50% of the cellular uptake of amino acid.

MIAPaCa-2 cells = test: Growth inhibitory effect on human pancreatic cancer cell line MIAPaCa-2 (Trypan-Blue method); assay type: cell-based; conditions: MIA PaCa-2, 0.2% DMSO, counted every 24 hr for 5 days
Protocol: 2) Growth Inhibitory Effect on Human Pancreatic Cancer Cell Line MIAPaCa-2
MIAPaCa-2 cells were plated on a 12-well plate at 2000 cells/well, and cultured for 48 hr without addition of test compound. 48 hr after the beginning of the culture, each test compound (0.03, 0.1, 0.3, 1, 3, 6, 10, 30, 100 μM) was added thereto in the presence of 0.2% DMSO. The cells were counted every 24 hr for 5 days, and the inhibitory effect on the MIAPaCa-2 cell growth was observed by Trypan-Blue method. The results were evaluated as inhibitory capacity 50%, i.e., IC50, which corresponds to the concentration inhibiting 50% of the cell growth inhibitory activity.

human LAT-1 [1] = target: T1, human LAT-1 (Homo sapiens (Human), UniProt Q01650); test: Inhibition of [14C]L-leucine uptake into human LAT-1 stably expressing HEK293 cell line (uptake buffer, 1 min); assay type: cell-based; conditions: HEK293 human LAT-1 stably expressing cells; Na+-free HBSS pH7.4; [14C]L-leucine or alanine 1 μM, uptake 1 min; read-out: LAT-1 inhibitory activity/IC50
Description: as §1, §2, §3

[2] = tested on: subcutaneous tumor derived from human pancreatic cancer cell line MIAPaCa-2; test: Enlargement inhibitory effect on subcutaneous tumor derived from MIAPaCa-2 in nude mice; assay type: in vivo, nude mice (BALB/cAJc1-nu); conditions: 1 mg/kg orally once a day for 7 days; female nude mice; tumor volume after 15 to 21 days vs control group
Protocol: Experimental Example 2 Biological Activity Evaluation Test Enlargement Inhibitory Effect on Subcutaneous Tumor Derived from Human Pancreatic Cancer Cell Line MIAPaCa-2 in Nude Mice
Tumor tissue (0.1 g) derived from MIAPaCa-2 cell was subcutaneously transplanted into female nude mice (6-week old, BALB/cAJc1-nu), which the tumor tissue was formed in different nude mice in advance. 5% MC suspension was prepared from saline and each test compound (1 mg/kg), and it was orally-administered once a day for 7 days from 2 days after transplant. The time-dependent change of the tumor volume was measured by measuring (major axis×minor axis×minor axis)/2 of the tumor volume (weight) according to the method in Sawa, Jun Wu, Takaaki Akaike, and Hiroshi Maeda (2000) Cancer research 60, 666-671.
The tumor volume after 15 to 21 days administration of compound administration group was compared with those of control group, and the tumor growth inhibitory ratio was calculated. The anti-tumor action was evaluated as tumor growth inhibitory ratio.

human LAT-1 [3] = target: T1, human LAT-1; test: Inhibition of [14C]L-leucine uptake into human LAT-1 stably expressing cells in culture solution (MEM medium, 120 min); assay type: cell-based; conditions: MEM medium containing non-essential amino acid, [14C]L-leucine uptake 120 min, read-out: LAT-1 inhibitory activity/IC50
Protocol: The above-mentioned human LAT-1 stably expressing cells were plated on a 24-well collagen plate at 1.2×10^5 cells/well, and, after 48 hr, the cells were washed (×3) with new culture solution (MEM medium (containing non-essential amino acid)) kept at 37° C. Each test compound (0.1, 1, 3, 10 and 30 μM) was added thereto, and the mixture was kept at 37° C. for 3 min. [^14C]L-leucine was added thereto, and [^14C]L-leucine was uptaken in the culture solution for 120 min. The mixture was washed (×3) with ice-cold buffer (Na^2+-free Hank's balanced salt solution (HBSS) pH7.4). Then, the cells were dissolved in 0.1M NaOH aqueous solution (500 μL), and the protein concentration was measured using the 20 μL of the solution. The uptaken radioactivity was measured using the remaining solution. The measured results were corrected with the protein concentration. The results were evaluated as inhibitory capacity 50%, i.e., IC50, which corresponds to the concentration inhibiting 50% of the cellular uptake of amino acid.

human LAT-2, sequence (Q9UHI5 whole entry): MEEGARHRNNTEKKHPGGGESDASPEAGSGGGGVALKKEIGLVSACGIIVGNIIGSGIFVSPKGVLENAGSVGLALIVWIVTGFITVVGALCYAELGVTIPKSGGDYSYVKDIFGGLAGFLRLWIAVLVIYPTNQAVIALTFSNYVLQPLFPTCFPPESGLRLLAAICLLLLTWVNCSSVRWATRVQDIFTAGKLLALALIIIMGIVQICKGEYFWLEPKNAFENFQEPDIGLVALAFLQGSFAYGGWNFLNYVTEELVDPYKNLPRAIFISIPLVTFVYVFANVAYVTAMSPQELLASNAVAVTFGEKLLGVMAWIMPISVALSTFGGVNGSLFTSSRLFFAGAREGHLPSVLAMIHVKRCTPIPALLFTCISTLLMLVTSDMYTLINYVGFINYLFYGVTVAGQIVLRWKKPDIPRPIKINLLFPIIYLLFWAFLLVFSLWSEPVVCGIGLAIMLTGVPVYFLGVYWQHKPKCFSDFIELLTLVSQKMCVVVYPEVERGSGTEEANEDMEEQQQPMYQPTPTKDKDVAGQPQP
human LAT-2, sequence (P08195 102-630 partner): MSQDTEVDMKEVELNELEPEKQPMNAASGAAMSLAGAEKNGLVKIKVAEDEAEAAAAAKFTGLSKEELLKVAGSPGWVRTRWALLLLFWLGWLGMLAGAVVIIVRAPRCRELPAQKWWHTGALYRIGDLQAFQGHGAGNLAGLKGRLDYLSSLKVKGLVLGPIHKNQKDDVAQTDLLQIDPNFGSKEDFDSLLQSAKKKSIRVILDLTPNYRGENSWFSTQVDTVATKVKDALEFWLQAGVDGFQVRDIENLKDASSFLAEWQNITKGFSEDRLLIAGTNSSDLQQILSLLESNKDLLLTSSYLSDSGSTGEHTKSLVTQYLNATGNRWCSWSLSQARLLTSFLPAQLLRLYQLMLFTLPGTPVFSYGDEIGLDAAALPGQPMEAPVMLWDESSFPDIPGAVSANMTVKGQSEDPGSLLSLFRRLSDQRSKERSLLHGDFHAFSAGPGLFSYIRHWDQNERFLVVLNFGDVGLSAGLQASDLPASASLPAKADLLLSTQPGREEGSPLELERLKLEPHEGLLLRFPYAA
T1 sequence (Q01650 whole entry): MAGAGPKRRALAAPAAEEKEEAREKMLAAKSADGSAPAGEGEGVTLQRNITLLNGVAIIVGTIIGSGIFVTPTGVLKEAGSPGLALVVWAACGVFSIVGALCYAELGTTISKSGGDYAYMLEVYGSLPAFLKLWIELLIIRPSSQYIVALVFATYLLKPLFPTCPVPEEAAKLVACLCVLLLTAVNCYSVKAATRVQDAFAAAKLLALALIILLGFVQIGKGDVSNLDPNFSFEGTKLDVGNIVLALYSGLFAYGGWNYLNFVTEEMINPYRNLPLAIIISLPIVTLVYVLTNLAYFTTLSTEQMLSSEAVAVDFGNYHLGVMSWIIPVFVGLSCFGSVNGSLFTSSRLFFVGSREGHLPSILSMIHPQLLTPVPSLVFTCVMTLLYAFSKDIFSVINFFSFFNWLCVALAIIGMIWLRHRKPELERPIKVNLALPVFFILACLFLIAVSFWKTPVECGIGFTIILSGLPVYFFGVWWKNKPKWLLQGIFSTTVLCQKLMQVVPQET
T1 sequence (P08195 102-630 partner): as the sequence (P08195 102-630 partner) above

`NCCCC[C@@H](Oc1ccc(C(F)(F)F)cc1)c1ccccc1` [Example 66, (R)-5-phenyl-5-[4-(trifluoromethyl)phenoxy]pentan-1-amine fumarate] showed an IC50 (human LAT-2) of 194 µM, an IC50 (MIAPaCa-2 cells) of 0.17 µM and an IC50 (human LAT-1 [1]) of 62.8 µM.

`NCCCCC(Oc1ccc(OC(F)(F)F)cc1)c1ccccc1` (stereo not drawn) [Example 44] was tested, and the IC50 (human LAT-2) was 169 µM and the IC50 (human LAT-1 [1]) was 39.4 µM.

In the case of `NCCCCC(Oc1ccc(OC(F)(F)F)c(F)c1)c1cccs1` (stereo not drawn) [Example 53], the IC50 (human LAT-2) is reported as 258 µM and the IC50 (human LAT-1 [1]) is reported as 146 µM.

For `NCCCCCC(Oc1ccc(C(F)(F)F)cc1)c1ccccc1` (stereo not drawn) [Example 6, 6-phenyl-6-[4-(trifluoromethyl)phenoxy]hexan-1-amine], the IC50 (human LAT-2) was 128 µM and the IC50 (human LAT-1 [1]) was 89.1 µM.

`NCCCCC(Oc1ccc(OC(F)(F)F)cc1)c1ccccc1.O=C(O)/C=C/C(=O)O` (stereo not drawn) [Example 73] was tested, and the “tumor growth inhibitory ratio” value [2] was 83.6%.

`CCC(C)c1ccc(OC(CCCCN)c2ccccc2)cc1` (stereo not drawn) [Example 26] showed an IC50 (human LAT-2) of 253 µM and an IC50 (human LAT-1 [1]) of 57 µM.

`NCCCC[C@H](Oc1ccc(C(F)(F)F)cc1)c1ccccc1` [Example 67, (S)-5-phenyl-5-[4-(trifluoromethyl)phenoxy]pentan-1-amine fumarate] showed an IC50 (human LAT-2) of 207 µM, an IC50 (MIAPaCa-2 cells) of 4.16 µM and an IC50 (human LAT-1 [1]) of 96.2 µM.

For `NCCCCC(Oc1ccc(C(F)(F)F)c(F)c1)c1cccs1` (stereo not drawn) [Example 54], the IC50 (human LAT-2) was 300 µM and the IC50 (human LAT-1 [1]) was 177 µM.

With `CCC(C)c1ccc(OC(CCCCN)c2cccs2)cc1` (stereo not drawn) [Example 51] the IC50 (human LAT-2) was 261 µM and the IC50 (human LAT-1 [1]) was 261 µM.

`NCCCCC(Oc1ccc(C(F)(F)F)cc1)c1ccccc1.O=C(O)/C=C/C(=O)O` (stereo not drawn) [Example 2, 5-phenyl-5-[4-(trifluoromethyl)phenoxy]pentan-1-amine fumarate] was tested, and the “tumor growth inhibitory ratio” value [2] was 80.5%.

In the case of `NCCCCC(Oc1ccc(C(F)(F)F)c(F)c1)c1ccccc1.O=C(O)/C=C/C(=O)O` (stereo not drawn) [Example 72], the “tumor growth inhibitory ratio” value [2] is reported as 84.4%.

`NCCCCC(Oc1ccc(C(F)(F)F)c(F)c1)c1ccccc1` (stereo not drawn) [Example 29] showed an IC50 (human LAT-2) of 218 µM and an IC50 (human LAT-1 [1]) of 76 µM.

`NCCCC[C@@H](Oc1ccc(OC(F)(F)F)cc1)c1ccccc1.O=C(O)/C=C/C(=O)O` [Example 70, (R)-5-phenyl-5-[4-(trifluoromethoxy)phenoxy]pentan-1-amine fumarate] was tested, and the “tumor growth inhibitory ratio” value [2] was 90.2%, the IC50 (human LAT-1 [3]) was 10.4 µM and the IC50 (human LAT-2) was 131 µM. The IC50 (MIAPaCa-2 cells) was 0.11 µM and the IC50 (human LAT-1 [1]) was 36.6 µM.

`NCCCC[C@@H](Oc1ccc(C(F)(F)F)c(F)c1)c1ccccc1.O=C(O)/C=C/C(=O)O` [Example 68, (R)-5-[3-fluoro-4-(trifluoromethyl)phenoxy]-5-phenylpentan-1-amine fumarate] was tested, and the “tumor growth inhibitory ratio” value [2] was 84.4%, the IC50 (human LAT-2) was 156 µM and the IC50 (MIAPaCa-2 cells) was 0.43 µM. For the same compound, the IC50 (human LAT-1 [1]) was 36.4 µM.

In the case of `NCCCCC(Oc1ccc(OC(F)(F)F)cc1)c1cccs1` (stereo not drawn) [Example 50], the IC50 (human LAT-2) is reported as 313 µM and the IC50 (human LAT-1 [1]) is reported as 123 µM.

In the case of `NCCCCC(Oc1ccc(C(F)(F)F)cc1)c1cccc(F)c1` (stereo not drawn) [Example 12], the IC50 (human LAT-2) is reported as 100 µM and the IC50 (human LAT-1 [1]) is reported as 63 µM.

For `NCCCCC(Oc1ccc(C(F)(F)F)cc1)c1ccccc1` (stereo not drawn) [Example 1, 5-phenyl-5-[4-(trifluoromethyl)phenoxy]pentan-1-amine], the IC50 (human LAT-2) was 146 µM and the IC50 (human LAT-1 [1]) was 57.5 µM.

In the case of `NCCCC[C@H](Oc1ccc(C(F)(F)F)c(F)c1)c1ccccc1.O=C(O)/C=C/C(=O)O` [Example 69, (S)-5-[3-fluoro-4-(trifluoromethyl)phenoxy]-5-phenylpentan-1-amine fumarate], the “tumor growth inhibitory ratio” value [2] is reported as 85.5%, the IC50 (human LAT-2) is reported as 53 µM and the IC50 (MIAPaCa-2 cells) is reported as 0.83 µM. It also gave an IC50 (human LAT-1 [1]) of 69 µM.

With `NCCCCC(Oc1ccc(C(F)(F)F)cc1)c1cccs1` (stereo not drawn) [Example 48, 5-(thiophen-2-yl)-5-[4-(trifluoromethyl)phenoxy]pentan-1-amine] the IC50 (human LAT-2) was 357 µM and the IC50 (human LAT-1 [1]) was 56.6 µM.

For `NCCCC[C@H](Oc1ccc(OC(F)(F)F)cc1)c1ccccc1.O=C(O)/C=C/C(=O)O` [Example 71, (S)-5-phenyl-5-[4-(trifluoromethoxy)phenoxy]pentan-1-amine fumarate], the “tumor growth inhibitory ratio” value [2] was 85.9%, the IC50 (human LAT-2) was 131 µM and the IC50 (MIAPaCa-2 cells) was 3.36 µM. It also gave an IC50 (human LAT-1 [1]) of 244 µM.
